In patent publication US10550084B2, “Substituted 1-hydroxy-pyridin-2(1H)-ones, and methods of making and using same” (ARBUTUS BIOPHARMA CORPORATION, priority 2017, dated 2020):

What was measured:
Format in all cases: cell-based
[1] = test system: plus-strand of HBV rcDNA in HepDE19 cells; assay: HepDE19 assay with bDNA quantitation of HBV rcDNA, plus-strand probe set; conditions: Hepatitis B virus, 168 h, 7 days, top concentration 25 μM, Quantigene 2.0 bDNA, plus-strand (PS) rcDNA, read-out: bDNA_RCDNA_PS EC50
Procedure: (§1) (b) HepDE19 Assay with bDNA Quantitation of HBV rcDNA
(§2) HepDE19 cell culture system is a HepG2 (human hepatocarcinoma) derived cell line that supports HBV DNA replication and cccDNA formation in a tetracycline (Tet)-regulated manner and produces HBV rcDNA and a detectable reporter molecule dependent on the production and maintenance of cccDNA (Guo, et al., 2007, J. Virol. 81:12472-12484). HepDE19 (50,000 cells/well) were plated in 96 well collagen-coated tissue-culture treated microtiter plates in DMEM/F12 medium supplemented with 10% fetal bovine serum, 1% penicillin-streptomycin and 1 μg/mL tetracycline and incubated in a humidified incubator at 37° C. and 5% CO2 overnight. Next day, the cells were switched to fresh medium without tetracycline and incubated for 4 hrs at 37° C. and 5% CO2. The cells were treated with fresh Tet-free medium with compounds at concentrations starting at 25 μM and a serial, ½ log, 8-point, titration series in duplicate. The final DMSO concentration in the assay was 0.5%. The plates were incubated for 7 days in a humidified incubator at 37° C. and 5% CO2. Following a 7 day-incubation, the level of rcDNA present in the inhibitor-treated wells was measured using a Quantigene 2.0 bDNA assay kit (Affymetrix, Santa Clara, Calif.) with HBV specific custom probe set and manufacturer's instructions. In order to differentiate HBV RNaseH inhibitors from other classes of HBV inhibitors (for example, nucleos(t)ide analogs or capsid inhibitors), the assay method was configured by incorporating the quantitation of both the minus-strand and the plus-strand of HBV rcDNA levels using specifically designed HBV probe sets. This is based on the observation that inhibition of RNaseH enzyme activity results in a block of the synthesis of the plus strand synthesis by the viral polymerase that follows the synthesis of the minus-strand of rcDNA (Tavis & Lomonosova, 2015, Antiviral Res. 118:132-138). […] In contrast, treatment with HBV inhibitors such as a nucleos(t)ide analogs or capsid inhibitors reduces the production of both strands of HBV rcDNA in cells. Concurrently, the effect of compounds on cell viability was assessed using replicate plates, plated at a density of 5,000 cells/well and incubated for 4 days, to determine the ATP content as a measure of cell viability using the cell-titer glo reagent (CTG; Promega Corporation, Madison, Wis.) as per manufacturer's instructions. The plates were read using a Victor luminescence plate reader (PerkinElmer Model 1420 Multilabel counter) and the relative luminescence units (RLU) data generated from each well was calculated as % inhibition of the untreated control wells and analyzed using XL-Fit module in Microsoft Excel to determine EC50 and EC90 (bDNA) and CC50 (CTG) values using a 4-parameter curve fitting algorithm.

[2] = test system: HA-tagged HBeAg (HBV) in DESHAe82 cells; assay: AlphaLisa eAg: HA-HBeAg level in DESHAe82 cell culture (anti-HBV / anti-cccDNA activity); conditions: Hepatitis B virus, 216 h, read-out: AlphaLisa_eAg EC50
Procedure: Evaluation of anti-HBV activity of the compounds in in vitro cell culture studies was conducted using a modification of the assay system described in Cai et al., 2012, Antimicrobial Agents Chemotherapy 56(8):4277-88, and PCT/EP/2015/06838. In the DESHAe82 cell culture system, the HA epitope-tagged secreted HBV “e antigen” (HBeAg) and HBV precore RNA are produced only from the cccDNA circular template that is formed after HBV replication in absence of Tetracycline (Tet). The DESHAe82 cell line produces high levels of cccDNA synthesis and HA-HBeAg, and high specific readout signals with low noise.
Two assay systems, a chemiluminescence ELISA (CLIA) and a proximity […] assay (AlphaLISA) were developed and used for high-sensitivity detection of HA-tagged HBeAg. To test the compound, DESHAe82 were plated in 96 well tissue-culture treated microtiter plates in DMEM/F12 medium supplemented with 10% fetal bovine serum+1% penicillin-streptomycin with Tet, and incubated in a humidified incubator at 37° C. and 5% CO2 overnight. Next day, the cells were switched to fresh medium without Tet and treated with a test compound, over a range of concentrations (compound is solubilized in 100% DMSO before dilution in cell culture media, and the final DMSO concentration in the assay was 0.5%), and incubated for a duration of 9 days in a humidified incubator at 37° C. and 5% CO2. Untreated negative control samples (0.5% DMSO only) were included on each plate in multiple wells. On day 9, media was harvested and removed to a fresh plate, and level of HA-HBeAg was determined by CLIA or AlphaLISA. Anti-cccDNA activity of each test compound concentration was calculated as a percentage of HA-HBeAg signal detected in negative control samples versus compound-treated samples, and EC50 value for each compound was defined as the concentration that reduced the HA-HBeAg signal by 50%.

[3] = test system: HBV rcDNA in HepDE19 cells; assay: HepDE19 assay with bDNA quantitation of HBV rcDNA; conditions: Hepatitis B virus, 168 h, 7 days, top concentration 25 μM, Quantigene 2.0 bDNA, read-out: bDNA_RCDNA EC50
Procedure: as §1, §2

Row | Compound | EC50 [1] [µM] | EC50 [2] [nM] | EC50 [3] [µM]
1 | CC(=NOc1ccccc1)c1c(C)cc(=O)n(O)c1O (mixture of isomers) [Compound 2, (E/Z)-1,6-Dihydroxy-4-methyl-5-(1-(phenoxyimino)ethyl)pyridin-2(1H)-one] | 4.4 | 1280 | 17.1
2 | CC(=NOCc1ccc(F)cc1)c1c(C)cc(=O)n(O)c1O (mixture of isomers) [Compound 6, (E/Z)-5-(1-(((4-fluorobenzyl)oxy)imino)ethyl)-1,6-dihydroxy-4-methylpyridin-2(1H)-one] | 5.97 | 640 | > 25
3 | CC(=NOCc1ccccc1N)c1c(C)cc(=O)n(O)c1O (mixture of isomers) [Compound 8, (E/Z)-5-(1-(((2-Aminobenzyl)oxy)imino)ethyl)-1,6-dihydroxy-4-methylpyridin-2(1H)-one] | 11.1 | 2250 | > 25
4 | CC(=NOCc1ccccc1F)c1c(C)cc(=O)n(O)c1O (mixture of isomers) [Compound 9, (E/Z)-5-(1-(((2-Fluorobenzyl)oxy)imino)ethyl)-1,6-dihydroxy-4-methylpyridin-2(1H)-one] | > 25 | – | > 25
5 | CC(=NOCc1ccc(C)cc1)c1c(C)cc(=O)n(O)c1O (mixture of isomers) [Compound 5, (E/Z)-1,6-Dihydroxy-4-methyl-5-(1-(((4-methylbenzyl)oxy)imino)ethyl)pyridin-2(1H)-one] | 3.01 | 1570 | > 25
6 | CC(=NOCc1ccccc1)c1c(C)cc(=O)n(O)c1O (mixture of isomers) [Compound 4, (E/Z)-5-(1-((Benzyloxy)imino)ethyl)-1,6-dihydroxy-4-methylpyridin-2(1H)-one] | 13.3 | 2240 | > 25
7 | CC(=NOc1ccc(F)cc1)c1c(C)cc(=O)n(O)c1O (mixture of isomers) [Compound 3, (E/Z)-5-(1-((4-fluorophenoxy)imino)ethyl)-1,6-dihydroxy-4-methylpyridin-2(1H)-one] | 7.41 | 1180 | 22.2
8 | COc1ccccc1CON=C(C)c1c(C)cc(=O)n(O)c1O (mixture of isomers) [Compound 10, (E/Z)-1,6-Dihydroxy-5-(1-(((2-methoxybenzyl)oxy)imino)ethyl)-4-methylpyridin-2(1H)-one] | 6.53 | 980 | > 25
9 | COc1ccc(CON=C(C)c2c(C)cc(=O)n(O)c2O)cc1 (mixture of isomers) [Compound 7, (E/Z)-1,6-Dihydroxy-5-(1-(((4-methoxybenzyl)oxy)imino)ethyl)-4-methylpyridin-2(1H)-one] | 7.11 | 350 | > 25
